Laboratory results from ChEMBL document CHEMBL1201862, “PubChem BioAssay data set” (2004).
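Where inhibition never reached the appropriate level, the endpoint shown equals the highest concentration tested. Otherwise, values were interpolated linearly from a five-concentration, 48-hour dose response in 96-well plates. Abbreviation: GI50, concentration required for 50% inhibition of growth.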 Activity calls are given as the source filed them. Rule as the data show it: active = GI50 up to about 1.1 µM and inactive = higher. Numbered stars: 1 amine (or outer) side, 2 acyl side, 3 side chain; on linkers, the order of the positions; unused ones are H or OH. Square brackets hold non-standard residues; d marks the D form. Peptide text beside a SMILES is read from it. * marks the point of attachment. X30 = CC(=O)N(C)SCC(N[*:1])C(=O)[*:2]; Cbz = O=C(OCc1ccccc1)*; Bn = c1ccc(C*)cc1

Key:
Experiment in all cases: DTP human tumour cell line panel, 48 h
[1] = system: ACHN
[2] = system: BT-549
[3] = system: CAKI-1
[4] = system: DU-145
[5] = system: HOP-92
[6] = system: KM12
[7] = system: MCF7
[8] = system: MOLT-4
[9] = system: OVCAR-4
[10] = system: RPMI-8226
[11] = system: SK-MEL-2
[12] = system: SK-MEL-5
[13] = system: SNB-19
[14] = system: SNB-75
[15] = system: SW-620
[16] = system: U-251
[17] = system: UO-31
[18] = system: UACC-257
[19] = system: HCC 2998

Compound	GI50 [1]	GI50 [2]	GI50 [3]	GI50 [4]	GI50 [5]	GI50 [6]	GI50 [7]	GI50 [8]	GI50 [9]	GI50 [10]	GI50 [11]	GI50 [12]	GI50 [13]	GI50 [14]	GI50 [15]	GI50 [16]	GI50 [17]	GI50 [18]	GI50 [19]
O=C(O)c1cc(Cl)cc(Cc2cc(Cl)cc(C(=O)O)c2O)c1O	> 100 µM (inactive)	> 100 µM (inactive)	> 100 µM (inactive)	> 100 µM (inactive)	> 100 µM (inactive)	> 100 µM (inactive)	> 100 µM (inactive)	> 100 µM (inactive)	> 100 µM (inactive)	> 100 µM (inactive)	> 100 µM (inactive)	> 100 µM (inactive)	> 100 µM (inactive)	> 100 µM (inactive)	> 100 µM (inactive)	> 100 µM (inactive)	> 100 µM (inactive)		
N#Cc1c(Cl)cccc1Oc1ccc(S(=O)(=O)/N=C(\NN)Nc2ccc(Cl)cc2)cc1	31.9 µM (inactive)	25.1 µM (inactive)	33.3 µM (inactive)	25.5 µM (inactive)	21.2 µM (inactive)	19.5 µM (inactive)	35.7 µM (inactive)	14.6 µM (inactive)	26.4 µM (inactive)	32.5 µM (inactive)	21.6 µM (inactive)	17.1 µM (inactive)	41.1 µM (inactive)	21.6 µM (inactive)	41.9 µM (inactive)	32 µM (inactive)	25.5 µM (inactive)	29.9 µM (inactive)	
CCc1n[nH]c(=O)n1CC	> 100 µM (inactive)	> 100 µM (inactive)	> 100 µM (inactive)	> 100 µM (inactive)	> 100 µM (inactive)	> 100 µM (inactive)	> 100 µM (inactive)	> 100 µM (inactive)	> 100 µM (inactive)	> 100 µM (inactive)	> 100 µM (inactive)	> 100 µM (inactive)	> 100 µM (inactive)		> 100 µM (inactive)	> 100 µM (inactive)	> 100 µM (inactive)	> 100 µM (inactive)	> 100 µM (inactive)
O=C1CC(c2ccccc2)NCCCCN2CC(CN1)C(C(O)c1ccccc1)C2=O (stereo unspecified)	> 100 µM (inactive)	> 100 µM (inactive)	> 100 µM (inactive)	> 100 µM (inactive)	> 100 µM (inactive)	> 100 µM (inactive)	> 100 µM (inactive)	> 100 µM (inactive)	> 100 µM (inactive)		> 100 µM (inactive)	> 100 µM (inactive)	> 100 µM (inactive)	95.5 µM (inactive)	> 100 µM (inactive)	> 100 µM (inactive)	> 100 µM (inactive)	> 100 µM (inactive)	> 100 µM (inactive)
FC1C2=C(SC1(F)F)C1CCC2C1 (stereo unspecified)	> 100 µM (inactive)	> 100 µM (inactive)	> 100 µM (inactive)	> 100 µM (inactive)	> 100 µM (inactive)	> 100 µM (inactive)	> 100 µM (inactive)	> 100 µM (inactive)	> 100 µM (inactive)	> 100 µM (inactive)	> 100 µM (inactive)	> 100 µM (inactive)	> 100 µM (inactive)	> 100 µM (inactive)	> 100 µM (inactive)		> 100 µM (inactive)	> 100 µM (inactive)	
COc1cc(/C=C2\C(=O)N(c3ccccc3)C(c3ccccc3)S2(=O)=O)cc(OC)c1OC (stereo unspecified)	> 100 µM (inactive)	35.6 µM (inactive)	88.7 µM (inactive)	37.9 µM (inactive)	33 µM (inactive)	38.4 µM (inactive)	31.2 µM (inactive)	34 µM (inactive)	27.5 µM (inactive)	17.2 µM (inactive)	42.6 µM (inactive)	17.6 µM (inactive)	31 µM (inactive)		51.3 µM (inactive)	28.6 µM (inactive)	22.9 µM (inactive)	32.1 µM (inactive)	64.6 µM (inactive)
c1ccc(C2=NNC3c4ccccc4-c4ccccc4N3C2)cc1 (stereo unspecified)	31.8 µM (inactive)	33.3 µM (inactive)	43 µM (inactive)	40.5 µM (inactive)	52.5 µM (inactive)	37.1 µM (inactive)	14.7 µM (inactive)	20 µM (inactive)	37.9 µM (inactive)	19 µM (inactive)	20.1 µM (inactive)	15.9 µM (inactive)	40 µM (inactive)	21.9 µM (inactive)	33.4 µM (inactive)	26.5 µM (inactive)	32.4 µM (inactive)	27.2 µM (inactive)	
c1ccc2c(CC3NCCN3)cccc2c1	> 100 µM (inactive)	> 100 µM (inactive)	> 100 µM (inactive)	> 100 µM (inactive)	46 µM (inactive)	> 100 µM (inactive)	> 100 µM (inactive)	> 100 µM (inactive)	> 100 µM (inactive)	> 100 µM (inactive)	> 100 µM (inactive)	> 100 µM (inactive)	> 100 µM (inactive)	> 100 µM (inactive)	> 100 µM (inactive)	> 100 µM (inactive)		> 100 µM (inactive)	
CC(C)C[C@H](NC(=O)CCc1ccccc1)B(O)O	5.79 µM (inactive)	17.5 µM (inactive)	5.08 µM (inactive)	60.8 µM (inactive)	29.4 µM (inactive)	16.7 µM (inactive)	6.03 µM (inactive)	3.04 µM (inactive)	36.5 µM (inactive)	2.24 µM (inactive)	12.7 µM (inactive)	8.45 µM (inactive)	15.4 µM (inactive)		4.83 µM (inactive)	31.4 µM (inactive)	15.8 µM (inactive)	12.5 µM (inactive)	13.7 µM (inactive)
COC(=O)c1ccc(OCCn2nnc(C(=O)NN)c2C(=O)NN)cc1	> 100 µM (inactive)	> 100 µM (inactive)	> 100 µM (inactive)	> 100 µM (inactive)	> 100 µM (inactive)	> 100 µM (inactive)	> 100 µM (inactive)	> 100 µM (inactive)	> 100 µM (inactive)	> 100 µM (inactive)	> 100 µM (inactive)	> 100 µM (inactive)	> 100 µM (inactive)			> 100 µM (inactive)	> 100 µM (inactive)	> 100 µM (inactive)	> 100 µM (inactive)
Cc1ccc2c3c1O[C@H]1c4[nH]c5ccccc5c4C[C@@]4(O)[C@@H](C2)N(CC2CC2)CC[C@]314	16.6 µM (inactive)	18.3 µM (inactive)	16.6 µM (inactive)	16.1 µM (inactive)	13 µM (inactive)	17 µM (inactive)	16.4 µM (inactive)	12.2 µM (inactive)	0.166 µM (active)	11.2 µM (inactive)	17.1 µM (inactive)	14.1 µM (inactive)	16.7 µM (inactive)		10.9 µM (inactive)	14.4 µM (inactive)	13.4 µM (inactive)	16.7 µM (inactive)	3.78 µM (inactive)
O=C1/C(=C/C=C/c2ccccc2)N=C(c2ccccc2)N1c1ccc(S(=O)(=O)Nc2nccs2)cc1	17.8 µM (inactive)	19.8 µM (inactive)	65.9 µM (inactive)	37.8 µM (inactive)	45.9 µM (inactive)	26.5 µM (inactive)	18.7 µM (inactive)	50.1 µM (inactive)	30 µM (inactive)	21.9 µM (inactive)	25.1 µM (inactive)	20.6 µM (inactive)	37.2 µM (inactive)	45.1 µM (inactive)	35.1 µM (inactive)	17.9 µM (inactive)	15.6 µM (inactive)	34.6 µM (inactive)	
NN/C(=N\S(=O)(=O)c1cc(Cl)c(Oc2ccc([N+](=O)[O-])cc2Cl)c(Cl)c1)Nc1ccc(Cl)cc1	23.7 µM (inactive)	18.4 µM (inactive)	17.9 µM (inactive)	19.2 µM (inactive)	19.9 µM (inactive)	18.8 µM (inactive)	22.6 µM (inactive)	19.1 µM (inactive)	17.9 µM (inactive)	31.8 µM (inactive)	18 µM (inactive)	16 µM (inactive)	23.8 µM (inactive)	23.7 µM (inactive)	28.7 µM (inactive)	16.2 µM (inactive)	17.6 µM (inactive)	17.6 µM (inactive)	
NS(=O)(=O)c1nnc(NC(=O)c2ccccc2)s1	> 100 µM (inactive)	> 100 µM (inactive)	> 100 µM (inactive)	> 100 µM (inactive)	65.3 µM (inactive)	> 100 µM (inactive)	> 100 µM (inactive)	> 100 µM (inactive)	0.536 µM (active)	> 100 µM (inactive)	> 100 µM (inactive)	> 100 µM (inactive)	> 100 µM (inactive)		> 100 µM (inactive)	> 100 µM (inactive)	> 100 µM (inactive)	> 100 µM (inactive)	> 100 µM (inactive)
CC(=O)N(C)SCC(NC(=O)C(Cc1ccccc1)NC(=O)OCc1ccccc1)C(=O)NC(Cc1ccccc1)C(=O)NC(Cc1c[nH]c2ccccc12)C(=O)NC(CCCCNC(=O)OCc1ccccc1)C(=O)NC(C(=O)NC(CSN(C)C(C)=O)C(=O)NC(C(N)=O)C(C)OCc1ccccc1)C(C)OCc1ccccc1 (stereo unspecified) (Cbz-F[X30]FWK(Cbz)T(Bn)[X30]T(Bn)-NH2; configuration not given here)	> 100 µM (inactive)	> 100 µM (inactive)		> 100 µM (inactive)	72.1 µM (inactive)	40.9 µM (inactive)	86.5 µM (inactive)	> 100 µM (inactive)	> 100 µM (inactive)	74.3 µM (inactive)	> 100 µM (inactive)	> 100 µM (inactive)	> 100 µM (inactive)	> 100 µM (inactive)	> 100 µM (inactive)	70.5 µM (inactive)	> 100 µM (inactive)	> 100 µM (inactive)	> 100 µM (inactive)
